Structures are written as SMILES.

The test system of the test is HBV. Nature of the test: HBV-DNA antiviral assay using HepG2.117 cells (intracellular HBV DNA by qPCR). It counts as cell-based, genotype D HBV. The note with it: Hepatitis B virus, 72 h, HBV DNA inhibition, 3 days incubation, 2% DMSO. The gist of the method: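 Endpoints are intracellular HBV DNA by qPCR (interpolated from a gBlock standard curve) and ATP-based viability in duplicate plates. Doxycycline-free HepG2.117 Tet-off cells received compounds (9 concentrations, 4-fold steps, 2% DMSO) for 3 days. Inhibition normalised to DMSO wells; EC50/EC90/CC50 by curve fitting.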
The molecule `Cc1cnn(-c2ccc(-n3c(=O)c4c(n5ncc(Cc6ccccc6)c35)CN(C(=O)c3ccc(Br)c(C(F)(F)F)c3)[C@@H](C)C4)cc2)n1` (stereo in doubt) [Compound 79b, rac-(11S)-5-benzyl-12-[4-bromo-3-(trifluoromethyl)benzoyl]-11-methyl-7-[4-(4-methyltriazol-2-yl)phenyl]-2,3,7,12-tetrazatricyclo[7.4.0.0^2,6]trideca-1(9),3,5-trien-8-one] came in with an EC50 of 50 to 500 nM.
The molecule `Cc1nn[nH]c1-c1ccc(-n2c(=O)c3c(n4ncc(Cc5ccccc5)c24)CN(C(=O)c2ccc(Br)c(C(F)(F)F)c2)[C@H](C)C3)cc1` (stereo in doubt) [Compound 80a, rac-(11R)-5-benzyl-12-[4-bromo-3-(trifluoromethyl)benzoyl]-11-methyl-7-[4-(4-methyl-1H-triazol-5-yl)phenyl]-2,3,7,12-tetrazatricyclo[7.4.0.0^2,6]trideca-1(9),3,5-trien-8-one] came in with a concentration for a half-maximal effect (EC50) below 50 nM.
With `Cc1nn[nH]c1-c1ccc(-n2c(=O)c3c(n4ncc(Cc5ccccc5)c24)CN(C(=O)c2ccc(Br)c(C(F)(F)F)c2)[C@@H](C)C3)cc1` (stereo in doubt) [Compound 80b, rac-(11S)-5-benzyl-12-[4-bromo-3-(trifluoromethyl)benzoyl]-11-methyl-7-[4-(4-methyl-1H-triazol-5-yl)phenyl]-2,3,7,12 tetrazatricyclo[7.4.0.0^2,6]trideca-1(9),3,5-trien-8-one], the EC50 was 50 to 500 nM.
Take `CC(C)Cc1cnn2c3c(c(=O)n(-c4ccc(-c5n[nH]c(=O)n5C)cc4)c12)C[C@@H](C)N(C(=O)c1ccc(Br)c(C(F)(F)F)c1)C3` (stereo in doubt) [Compound 81a, rac-(11R)-12-[4-bromo-3-(trifluoromethyl)benzoyl]-5-isobutyl-11-methyl-7-[4-(4-methyl-5-oxo-1H-1,2,4-triazol-3-yl)phenyl]-2,3,7,12-tetrazatricyclo[7.4.0.0^2,6]trideca-1(9),3,5-trien-8-one]: the concentration for a half-maximal effect (EC50) is below 50 nM.
Next, `CC(C)Cc1cnn2c3c(c(=O)n(-c4ccc(-c5n[nH]c(=O)n5C)cc4)c12)C[C@H](C)N(C(=O)c1ccc(Br)c(C(F)(F)F)c1)C3` (stereo in doubt) [Compound 81b, rac-(11S)-12-[4-bromo-3-(trifluoromethyl)benzoyl]-5-isobutyl-11-methyl-7-[4-(4-methyl-5-oxo-1H-1,2,4-triazol-3-yl)phenyl]-2,3,7,12-tetrazatricyclo[7.4.0.0^2,6]trideca-1(9),3,5-trien-8-one]: 50 to 500 nM.
For `C[C@@H]1Cc2c(n3ncc(Cc4ccccc4)c3n(-c3ccc(-c4nn(C)c(=O)[nH]4)cc3)c2=O)CN1C(=O)c1ccc(Br)c(C(F)(F)F)c1` (stereo in doubt) [Compound 82a, rac-(11R)-5-benzyl-12-[4-bromo-3-(trifluoromethyl)benzoyl]-11-methyl-7-[4-(1-methyl-5-oxo-4H-1,2,4-triazol-3-yl)phenyl]-2,3,7,12-tetrazatricyclo[7.4.0.0^2,6]trideca-1(9),3,5-trien-8-one], the EC50 was below 50 nM.
As to `C[C@H]1Cc2c(n3ncc(Cc4ccccc4)c3n(-c3ccc(-c4nn(C)c(=O)[nH]4)cc3)c2=O)CN1C(=O)c1ccc(Br)c(C(F)(F)F)c1` (stereo in doubt) [Compound 82b, rac-(11S)-5-benzyl-12-[4-bromo-3-(trifluoromethyl)benzoyl]-11-methyl-7-[4-(1-methyl-5-oxo-4H-1,2,4-triazol-3-yl)phenyl]-2,3,7,12-tetrazatricyclo[7.4.0.0^2,6]trideca-1(9),3,5-trien-8-one], the EC50 was in the range of 50 to 500 nM.
In turn, `Cc1nn[nH]c1-c1cc(-n2c(=O)c3c(n4ncc(Cc5ccccc5)c24)CN(C(=O)c2ccc(Br)c(C(F)(F)F)c2)[C@H](C)C3)nn1C` (stereo in doubt) [Compound 83a, rac-(11R)-5-benzyl-12-[4-bromo-3-(trifluoromethyl)benzoyl]-11-methyl-7-[1-methyl-5-(4-methyl-1H-triazol-5-yl)pyrazol-3-yl]-2,3,7,12-tetrazatricyclo[7.4.0.0^2,6]trideca-1(9),3,5-trien-8-one] yielded an EC50 below 50 nM.
As for `Cc1nn[nH]c1-c1cc(-n2c(=O)c3c(n4ncc(Cc5ccccc5)c24)CN(C(=O)c2ccc(Br)c(C(F)(F)F)c2)[C@@H](C)C3)nn1C` (stereo in doubt) [Compound 83b, rac-(11S)-5-benzyl-12-[4-bromo-3-(trifluoromethyl)benzoyl]-11-methyl-7-[1-methyl-5-(4-methyl-1H-triazol-5-yl)pyrazol-3-yl]-2,3,7,12-tetrazatricyclo[7.4.0.0^2,6]trideca-1(9),3,5-trien-8-one], the EC50 was in the range of 50 to 500 nM.
`CC[C@@H]1Cc2c(n3ncc(Cc4ccccc4)c3n(-c3ccc4c(NC)n[nH]c4c3)c2=O)CN1C(=O)c1ccc(Br)c(C(F)(F)F)c1` (stereo in doubt) [Compound 84a, rac-(11R)-5-benzyl-12-[4-bromo-3-(trifluoromethyl)benzoyl]-11-ethyl-7-[3-(methylamino)-1H-indazol-6-yl]-2,3,7,12-tetrazatricyclo[7.4.0.0^2,6]trideca-1(9),3,5-trien-8-one] yielded an EC50 below 50 nM.
In turn, `CC[C@H]1Cc2c(n3ncc(Cc4ccccc4)c3n(-c3ccc4c(NC)n[nH]c4c3)c2=O)CN1C(=O)c1ccc(Br)c(C(F)(F)F)c1` (stereo in doubt) [Compound 84b, rac-(11S)-5-benzyl-12-[4-bromo-3-(trifluoromethyl)benzoyl]-11-ethyl-7-[3-(methylamino)-1H-indazol-6-yl]-2,3,7,12-tetrazatricyclo[7.4.0.0^2,6]trideca-1(9),3,5-trien-8-one] displayed an EC50 below 50 nM.
In turn, `CNC(=O)c1cnc(-n2c(=O)c3c(n4ncc(CC(C)C)c24)CN(C(=O)c2ccc(Br)c(C(F)(F)F)c2)[C@H](C)C3)nc1` (stereo in doubt) [Compound 85a, N-methyl-2-[rac-(11R)-12-[4-bromo-3-(trifluoromethyl)benzoyl]-5-isobutyl-11-methyl-8-oxo-2,3,7,12-tetrazatricyclo[7.4.0.0^2,6]trideca-1(9),3,5-trien-7-yl]pyrimidine-5-carboxamide] gave an EC50 below 50 nM.
In the case of `CNC(=O)c1cnc(-n2c(=O)c3c(n4ncc(CC(C)C)c24)CN(C(=O)c2ccc(Br)c(C(F)(F)F)c2)[C@@H](C)C3)nc1` (stereo in doubt) [Compound 85b, N-methyl-2-[rac-(11S)-12-[4-bromo-3-(trifluoromethyl)benzoyl]-5-isobutyl-11-methyl-8-oxo-2,3,7,12-tetrazatricyclo[7.4.0.0^2,6]trideca-1(9),3,5-trien-7-yl]pyrimidine-5-carboxamide], the EC50 is below 50 nM.
In turn, `CC(C)Cc1cnn2c3c(c(=O)n(-c4ccc5c(c4)ncn5C)c12)C[C@@H](C)N(C(=O)c1ccc(Br)c(C(F)(F)F)c1)C3` (stereo in doubt) [Compound 86a, rac-(11R)-12-[4-bromo-3-(trifluoromethyl)benzoyl]-5-isobutyl-11-methyl-7-(1-methylbenzimidazol-5-yl)-2,3,7,12-tetrazatricyclo[7.4.0.0^2,6]trideca-1(9),3,5-trien-8-one] registered an EC50 below 50 nM.
`CC(C)Cc1cnn2c3c(c(=O)n(-c4ccc5c(c4)ncn5C)c12)C[C@H](C)N(C(=O)c1ccc(Br)c(C(F)(F)F)c1)C3` (stereo in doubt) [Compound 86b, rac-(11S)-12-[4-bromo-3-(trifluoromethyl)benzoyl]-5-isobutyl-11-methyl-7-(1-methylbenzimidazol-5-yl)-2,3,7,12-tetrazatricyclo[7.4.0.0^2,6]trideca-1(9),3,5-trien-8-one] registered an EC50 of 50 to 500 nM.
`CCC[C@@H]1Cc2c(n3ncc(Cc4ccccc4)c3n(-c3ccc4c(NC)n[nH]c4c3)c2=O)CN1C(=O)c1ccc(Br)c(C(F)(F)F)c1` (stereo in doubt) [Compound 88a, rac-(11R)-5-benzyl-12-[4-bromo-3-(trifluoromethyl)benzoyl]-7-[3-(methylamino)-1H-indazol-6-yl]-11-propyl-2,3,7,12-tetrazatricyclo[7.4.0.0^2,6]trideca-1(9),3,5-trien-8-one] yielded an EC50 below 50 nM.
In the case of `CCC[C@H]1Cc2c(n3ncc(Cc4ccccc4)c3n(-c3ccc4c(NC)n[nH]c4c3)c2=O)CN1C(=O)c1ccc(Br)c(C(F)(F)F)c1` (stereo in doubt) [Compound 88b, rac-(11S)-5-benzyl-12-[4-bromo-3-(trifluoromethyl)benzoyl]-7-[3-(methylamino)-1H-indazol-6-yl]-11-propyl-2,3,7,12-tetrazatricyclo[7.4.0.0^2,6]trideca-1(9),3,5-trien-8-one], the EC50 was below 50 nM.
The molecule `CNC(=O)c1cnc(-n2c(=O)c3c(n4ncc(CC(C)C)c24)CN(C(=O)c2ccc(Br)c(C(F)(F)F)c2)[C@H](C)C3)cn1` (stereo in doubt) [Compound 89a, N-methyl-5-[rac-(11R)-12-[4-bromo-3-(trifluoromethyl)benzoyl]-5-isobutyl-11-methyl-8-oxo-2,3,7,12-tetrazatricyclo[7.4.0.0^2,6]trideca-1(9),3,5-trien-7-yl]pyrazine-2-carboxamide] had a half-maximal effective concentration (EC50) below 50 nM.
For `CNC(=O)c1cnc(-n2c(=O)c3c(n4ncc(CC(C)C)c24)CN(C(=O)c2ccc(Br)c(C(F)(F)F)c2)[C@@H](C)C3)cn1` (stereo in doubt) [Compound 89b, [rac-(11S)-12-[4-bromo-3-(trifluoromethyl)benzoyl]-5-isobutyl-11-methyl-8-oxo-2,3,7,12-tetrazatricyclo[7.4.0.0^2,6]trideca-1(9),3,5-trien-7-yl]pyrazine-2-carboxamide] the value was 50 to 500 nM; for `C[C@H]1Cc2c(n3ncc(CC4CC4)c3n(-c3ccc(C(=O)N(C)CO)cc3)c2=O)CN1C(=O)c1ccc(Br)c(C(F)(F)F)c1` (stereo in doubt) [Compound 91, N-(hydroxymethyl)-N-methyl-4-[rac-(11S)-12-[4-bromo-3-(trifluoromethyl)benzoyl]-5-(cyclopropylmethyl)-11-methyl-8-oxo-2,3,7,12-tetrazatricyclo[7.4.0.0^2,6]trideca-1 (9),3,5-trien-7-yl]benzamide], above 5000 nM.

One may read the EC50 as the concentration needed to bring the measured effect to its halfway point. Low values mean higher potency in that assay, high ones lower potency in that assay.

These data come from patent US11820773B2, “Tricyclic compounds” (ALIGOS THERAPEUTICS, INC., priority 2020, dated 2023).
